Data set [1] deals with Neutral endopeptidase 24.11 (NEP). Put plainly: 500 ng NEP (activity 400 pmol min^−1 μg^−1) in 100 mM Tris.HCl and 150 mM NaCl (pH 7.4). To be noted: 37 °C, up to 24 h.
The conditions of data set [2]: cited from earlier work. The source says:
In humans, the NP system consists primarily of three main peptides, A-type or atrial natriuretic peptide (ANP), B-type or brain natriuretic peptide (BNP), and C-type natriuretic peptide (CNP). Distinct variations in the expression levels of each NP correlates strongly with normal physiological and disease conditions. Due to their importance in cardio-renal diseases these peptides have been extensively studied. Structurally, the NP family is characterized by a 17-residue ring structure with a highly conserved internal sequence and variable N- and C-terminal regions. W ...

The next data set addresses T1, human NPR-A (Homo sapiens, UniProt P16066).
T1 construct: expressed in transfected cells; host or cells: HEK 293 cells, transient, Lipofectamine 2000
T1 sequence (P16066 33-1061): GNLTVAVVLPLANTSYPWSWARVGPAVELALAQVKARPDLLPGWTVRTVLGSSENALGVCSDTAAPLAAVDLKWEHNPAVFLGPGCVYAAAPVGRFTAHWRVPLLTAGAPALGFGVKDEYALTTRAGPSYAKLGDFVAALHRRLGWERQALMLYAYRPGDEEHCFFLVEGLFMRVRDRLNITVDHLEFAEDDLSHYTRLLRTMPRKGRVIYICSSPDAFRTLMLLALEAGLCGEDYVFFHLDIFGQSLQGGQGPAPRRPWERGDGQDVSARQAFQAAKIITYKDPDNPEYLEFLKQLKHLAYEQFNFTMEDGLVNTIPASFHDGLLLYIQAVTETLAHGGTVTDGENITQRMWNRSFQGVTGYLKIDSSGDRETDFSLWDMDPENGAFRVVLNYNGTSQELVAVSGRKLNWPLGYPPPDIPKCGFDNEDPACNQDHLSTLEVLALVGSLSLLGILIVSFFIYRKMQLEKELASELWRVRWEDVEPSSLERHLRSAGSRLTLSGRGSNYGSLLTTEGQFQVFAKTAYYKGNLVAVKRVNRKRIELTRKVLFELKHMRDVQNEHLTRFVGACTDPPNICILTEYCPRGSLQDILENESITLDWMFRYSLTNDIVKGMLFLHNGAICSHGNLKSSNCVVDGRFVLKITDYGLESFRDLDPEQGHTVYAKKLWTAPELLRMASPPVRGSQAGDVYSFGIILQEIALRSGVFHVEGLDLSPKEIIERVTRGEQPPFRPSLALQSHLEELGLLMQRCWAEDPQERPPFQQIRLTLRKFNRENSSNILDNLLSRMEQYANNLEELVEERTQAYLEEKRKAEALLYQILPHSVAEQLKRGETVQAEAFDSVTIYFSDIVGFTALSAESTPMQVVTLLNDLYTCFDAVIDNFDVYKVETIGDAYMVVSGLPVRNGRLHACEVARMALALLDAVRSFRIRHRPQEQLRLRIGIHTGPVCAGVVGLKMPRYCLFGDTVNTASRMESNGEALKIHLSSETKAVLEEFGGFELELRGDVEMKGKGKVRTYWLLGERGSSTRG
Description: cGMP ALPHAscreen, cGMP production in HEK 293 cells transiently overexpressing hNPR-A. The data set is classed as cell-based. To be noted: HEK 293 cells overexpressing hNPR-A. As to the method:
(§1) Cells were cultured at 5% CO2 and 37 °C. HEK 293 cells were cultured in high glucose DMEM (Gibco, Carlsbad, CA, USA) supplemented with 10% FBS, and 1% penicillin/streptomycin. HEK 293 cells were seeded in media lacking penicillin/streptomycin 24 to 48 h pre-transfection. PC12 cells were cultured in high glucose DMEM (Gibco) supplemented with 10% FBS and 1% penicillin/streptomycin.
HEK 293 cells were transfected using the lipofectamine 2000 transfection protocol (Invitrogen). Cells (95% confluence) were transfected with 45% pcDNA3.1/hNPR-A, 45% pcDNA3.1, and 10% pEGFP-NI to the optimal DNA concentration specified in the protocol. The co-transfection with pEGFP-NI plasmid allowed the determination of the transfection efficiency. This was assessed by the estimation of the number of GFP-expressing cells using an Olympus IX70 inverted fluorescence microscope. Transfected cells were used for assay purposes within 24 h.
(§2) The cGMP ALPHAscreen was performed using the ALPHAscreen Protein A detection kit and the biotinylated cGMP supplement (Perkin Elmer, Waltham, MA, USA) with rabbit anti-cGMP polyclonal antibody (Biovision, Mountain View, CA, USA). Cells were detached from the flask and the resulting pellet was resuspended in stimulation buffer (HBSS supplemented with 0.1% w/v BSA and 1 mM IBMX at 37 °C). Cells were added to a white 384-well Optiplate (Perkin Elmer, Waltham, USA) to 30,000 cells per well for HEK 293 cells and 10,000 cells per well for PC12 cells. Cells were incubated with different concentrations of test peptides (concentration range of 1 × 10^−5 to 1 × 10^−11 M in stimulation buffer) at 37 °C for 30 min. Cells were lysed with lysis buffer (1 M HEPES, 0.3% Tween-20, 1% BSA in H2O, pH 7.4). Then 5 μL acceptor-bead mix was added to each well under subdued lighting conditions, followed by 5 μL of donor-bead mix. Plates were incubated for ~12 h, slowly shaking at room temperature. After incubation, the ALPHAscreen signal was measured using an EnVision plate reader (Perkin Elmer). The standard curve consisted of cGMP in a concentration range of 1 × 10^−6 to 1 × 10^−12 M. All data points were acquired in triplicate and were analyzed using GraphPad Prism 5.0 software (GraphPad Software, Inc., San Diego, CA, USA).
(In Alpha technology, singlet oxygen from a donor bead excites a nearby acceptor bead.)

For another data set, the target named is T2, rat NPR-A (Rattus norvegicus, UniProt P18910).
T2 construct: endogenous in cells; host or cells: rat PC12 cells
T2 sequence (P18910 29-1057): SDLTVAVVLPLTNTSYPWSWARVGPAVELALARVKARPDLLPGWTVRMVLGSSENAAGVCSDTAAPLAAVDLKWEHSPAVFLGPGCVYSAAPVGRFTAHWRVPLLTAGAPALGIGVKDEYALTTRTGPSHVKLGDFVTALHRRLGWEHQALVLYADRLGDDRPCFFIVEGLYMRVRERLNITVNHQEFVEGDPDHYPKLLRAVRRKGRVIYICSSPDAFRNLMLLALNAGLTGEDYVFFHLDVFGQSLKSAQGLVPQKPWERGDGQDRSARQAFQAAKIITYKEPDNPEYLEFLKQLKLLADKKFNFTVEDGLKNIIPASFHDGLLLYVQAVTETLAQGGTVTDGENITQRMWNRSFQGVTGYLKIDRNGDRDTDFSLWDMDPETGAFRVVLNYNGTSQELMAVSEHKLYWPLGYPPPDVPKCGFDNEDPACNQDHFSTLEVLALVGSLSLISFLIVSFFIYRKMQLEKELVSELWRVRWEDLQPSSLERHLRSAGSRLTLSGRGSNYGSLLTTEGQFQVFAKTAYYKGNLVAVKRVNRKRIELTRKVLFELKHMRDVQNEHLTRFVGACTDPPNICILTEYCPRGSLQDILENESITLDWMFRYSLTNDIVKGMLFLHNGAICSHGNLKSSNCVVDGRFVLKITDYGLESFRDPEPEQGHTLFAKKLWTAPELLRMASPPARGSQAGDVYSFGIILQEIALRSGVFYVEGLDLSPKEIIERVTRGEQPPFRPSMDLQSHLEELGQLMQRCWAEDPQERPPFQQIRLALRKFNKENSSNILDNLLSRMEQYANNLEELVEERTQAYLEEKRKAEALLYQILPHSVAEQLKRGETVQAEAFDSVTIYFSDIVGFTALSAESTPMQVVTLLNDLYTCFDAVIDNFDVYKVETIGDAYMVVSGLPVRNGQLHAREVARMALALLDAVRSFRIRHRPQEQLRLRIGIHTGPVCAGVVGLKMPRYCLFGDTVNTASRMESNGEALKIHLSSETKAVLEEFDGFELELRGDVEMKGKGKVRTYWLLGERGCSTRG
Description: cGMP ALPHAscreen, cGMP production in PC12 cells. To be noted: PC12 cells, cGMP ALPHAscreen. The data set is classed as cell-based. As to the method:
NP activity can be determined by the effectiveness of the peptide to elicit cGMP production through NPR-A. The cGMP ALPHAscreen evaluates the ability of peptides to stimulate cGMP production in cells through a non-radioactive, homogenous, proximity assay which encompasses […]. […] In order to evaluate the potency of TNPa-e at rNPR-A, TNPa-e were evaluated using the cGMP ALPHAscreen in rat PC12 cells.
as §1, §2

“Also recorded” adds a separate entry of the source. Where two headings read alike, the source gives them in different places. Where a SMILES comes first, the peptide text is derived from it. Bridges are numbered along the chain shown (N, C = ends). Where only a bound is given, the exact number is not on record here.

Take SDSKIGNGCFGFPLDRIGSVSGLGCNRIMQNPPKKFSGE: the cleaved bond result in data set [1] is listed as “Lys35-Phe36, major, after 24 h; also recorded: Cys9-Phe10, major, after 24 h; also recorded: Arg27-Ile28, major, after 24 h”.

Regarding `CC[C@H](C)[C@@H]1NC(=O)[C@H](CCCNC(=N)N)NC(=O)[C@H](CC(=O)O)NC(=O)[C@H](CCSC)NC(=O)[C@H](CCCNC(=N)N)NC(=O)CNC(=O)CNC(=O)[C@H](Cc2ccccc2)NC(=O)[C@@H](NC(=O)[C@H](CO)NC(=O)[C@H](CO)NC(=O)[C@H](CCCNC(=N)N)NC(=O)[C@H](CCCNC(=N)N)NC(=O)[C@H](CC(C)C)NC(=O)[C@@H](N)CO)CSSC[C@@H](C(=O)N[C@@H](CC(N)=O)C(=O)N[C@@H](CO)C(=O)N[C@@H](Cc2ccccc2)C(=O)N[C@@H](CCCNC(=N)N)C(=O)N[C@@H](Cc2ccc(O)cc2)C(=O)O)NC(=O)CNC(=O)[C@H](CC(C)C)NC(=O)CNC(=O)[C@H](CO)NC(=O)[C@H](CCC(N)=O)NC(=O)[C@H](C)NC(=O)CNC1=O` [hANP, human atrial natriuretic peptide], the half-life in plasma in data set [2] is 3 min.

`CC[C@H](C)[C@@H]1NC(=O)[C@H](CCCNC(=N)N)NC(=O)[C@H](CC(=O)O)NC(=O)[C@H](CCSC)NC(=O)[C@H](CCCCN)NC(=O)[C@H](CCCNC(=N)N)NC(=O)CNC(=O)[C@H](Cc2ccccc2)NC(=O)[C@@H](NC(=O)CNC(=O)[C@H](CO)NC(=O)CNC(=O)[C@H](CCC(N)=O)NC(=O)[C@@H](NC(=O)[C@H](CCSC)NC(=O)[C@H](CCCCN)NC(=O)[C@@H]2CCCN2C(=O)[C@@H](N)CO)C(C)C)CSSC[C@@H](C(=O)N[C@@H](CCCCN)C(=O)N[C@H](C(=O)N[C@@H](CC(C)C)C(=O)N[C@@H](CCCN=C(N)N)C(=O)N[C@@H](CCCN=C(N)N)C(=O)N[C@@H](Cc2cnc[nH]2)C(=O)O)C(C)C)NC(=O)CNC(=O)[C@H](CC(C)C)NC(=O)CNC(=O)[C@H](CO)NC(=O)[C@H](CO)NC(=O)[C@H](CO)NC(=O)[C@H](CO)NC1=O` [hBNP]: the half-life in plasma in data set [2] is 22 min.

As usually defined, the EC50 is the concentration needed to bring the measured effect to its halfway point. Turning to `CC[C@H](C)[C@H](NC(=O)[C@H](CCCCN)NC(=O)[C@H](CO)NC(=O)[C@H](CC(=O)O)NC(=O)[C@@H](N)CO)C(=O)NCC(=O)N[C@@H](CC(=O)O)C(=O)NCC(=O)N[C@H]1CSSC[C@@H](C(=O)N[C@@H](CC(N)=O)C(=O)N[C@@H](CCCNC(=N)N)C(=O)N2CCC[C@H]2C(=O)N[C@H](C(=O)N[C@@H](CCC(N)=O)C(=O)N[C@@H](CC(N)=O)C(=O)N[C@@H](CCCNC(=N)N)C(=O)N2CCC[C@H]2C(=O)N[C@@H](CCCCN)C(=O)N[C@@H](CCC(N)=O)C(=O)N[C@H](C(=O)N2CCC[C@H]2C(=O)NCC(=O)NCC(=O)N[C@@H](CO)C(=O)O)[C@@H](C)CC)C(C)C)NC(=O)CNC(=O)[C@H](CC(C)C)NC(=O)CNC(=O)[C@H](CO)NC(=O)[C@H](C(C)C)NC(=O)[C@H](CO)NC(=O)CNC(=O)[C@H]([C@@H](C)CC)NC(=O)[C@H](Cc2c[nH]cn2)NC(=O)[C@H](CC(=O)O)NC(=O)[C@H](CC(C)C)NC(=O)[C@@H]2CCCN2C(=O)[C@H](CC(C)C)NC(=O)CNC(=O)[C@H](Cc2ccccc2)NC1=O` [TNPe] (H-SDSKIGDGCFGLPLDHIGSVSGLGCNRPVQNRPKQIPGGS-OH; disulfide 9-25), the Emax at 10 µM on human NPR-A (HEK293, read-out: cGMP production, % of the maximum response (compared with DNP, hANP, hBNP), at 10 μM) is less than 20%. Besides, the concentration for a half-maximal effect (EC50) at human NPR-A (30 min at 37 °C, cGMP ALPHAscreen, three separate experiments in triplicate, read-out: hNPR-A EC50 (95% CI), potency to stimulate cGMP production) is more than 10 µM; at rat NPR-A (30 min at 37 °C, three to five separate experiments in triplicate, read-out: rNPR-A EC50 (95% CI), potency to stimulate cGMP production) it was 1.8 µM; on rat NPR-A (read-out: EC50 at rNPR-A), more than 1 µM.

Values taken from paper PMC10095932 (Molecules, 2023).
